From PMC10743905, “Design, Synthesis, and In Vitro and In Vivo Bioactivity Studies of Hydrazide–Hydrazones of 2,4-Dihydroxybenzoic Acid” (International Journal of Molecular Sciences, 2023)
In brackets after ≈: the same amount, converted by molar mass. Read-outs that look alike come from different tables or passages of the source.

Tests used:
[1] = system: Bordetella bronchiseptica ATCC 4617; assay: Broth microdilution MIC/MBC; type: cell-based
Excerpt: (§1) In vitro antimicrobial activity assays - Methodology
(§2) The examined compounds 1 - 24 were screened in vitro for antibacterial and antifungal activities using the broth microdilution method according to procedure reported earlier by our research group and European Committee on Antimicrobial Susceptibility Testing (EUCAST) and Clinical and Laboratory Standards Institute (CLSI) guidelines against a panel of reference and clinical or saprophytic strains of microorganisms, in-cluding Gram-positive bacteria, Staphylococcus aureus ATCC 43300 (Methicillin Resistant S. aureus – MRSA), Staphylococcus aureus ATCC 29213 (Methicillin Susceptible S. aureus – MSSA), Staphylococcus epidermidis ATCC 12228, Enterococcus faecalis ATCC 29212, Micro-coccus luteus ATCC 10240, Bacillus subtilis ATCC 6633 and Bacillus cereus ATCC 10876), Gram-negative bacteria (Bordetella bronchiseptica ATCC 4617, Escherichia coli ATCC 25922, Klebsiella pneumoniae ATCC 13883, Proteus mirabilis ATCC 12453, Salmonella typhimurium ATCC 14028 and Pseudomonas aeruginosa ATCC 9027) and fungi belonging to yeasts (Can-dida albicans ATCC 10231, Candida albicans ATCC 2091, Candida parapsilosis ATCC 22019, Candida glabrata ATCC 90030 and Candida krusei ATCC 14243). The microorganisms be-longing to ATCC came from American Type Culture Collection, routinely used for the evaluation of antimicrobials. All the used microbial cultures were first subcultured on nu-trient agar or Sabouraud agar at 35°C for 18-24 h or 30°C for 24-48 h for bacteria and fungi, […]
(§3) The surface of Mueller-Hinton agar (for bacteria) and RPMI 1640 with MOPS (for fungi) were inoculated with the suspensions of bacterial or fungal species. Microbial suspensions were prepared in sterile saline with an optical density of McFarland standard scale 0.5.
(§4) Samples containing examined compounds were dissolved in dimethyl sulfoxide (DMSO).
(§5) Furthermore, bacterial and fungal suspensions were put onto Petri dishes with solid me-dia containing 2 mg/mL of the tested compounds followed incubation at 37°C for 24h and 30°C for 48h for bacteria and fungi, respectively. The inhibition of microbial growth was judged by comparison with a control culture prepared without any sample tested. Ciprof-loxacin, vancomycin, nitrofurantoin, cefuroxime, ampicillin or nystatin (Sigma) were used as a reference antibacterial or antifungal compounds, respectively.
(§6) Subsequently, the MIC (Minimal Inhibitory Concentration) of the compounds was ex-amined by the microdilution broth method, using their two-fold dilutions in Mueller- […]
(§7) Hinton broth or (for bacteria) and RPMI 1640 broth with MOPS (for fungi) prepared in 96-well polystyrene plates. Final concentrations of the compounds ranged from 1000 to 0.488 µg/ml. Microbial suspensions were prepared in 0.85% NaCl with an optical density of 0.5 McFarland standard. Next each bacterial or fungal suspension was added per each well containing broth and various concentrations of the examined compounds. After incuba-

[2] = system: Bacillus cereus ATCC 10876; assay: Broth microdilution MIC/MBC; type: cell-based; conditions: for MBC: ATCC10876; for MIC: ATCC10876, read-out: MIC
Excerpt: as §1, §2, §3, §4, §5, §6, §7

[3] = system: Klebsiella pneumoniae ATCC 13883; assay: Broth microdilution MIC/MBC; type: cell-based
Excerpt: as §1, §2, §3, §4, §5, §6, §7

[4] = system: Enterococcus faecalis ATCC 29212; assay: Broth microdilution MIC/MBC; type: cell-based; conditions: for MBC: ATCC29212, read-out: MBC; for MIC: ATCC29212, read-out: MIC
Excerpt: as §1, §2, §3, §4, §5, §6, §7

[5] = system: Escherichia coli ATCC 25922; assay: Broth microdilution MIC/MBC; type: cell-based
Excerpt: as §1, §2, §3, §4, §5, §6, §7

[6] = system: Candida albicans ATCC 2091; assay: Broth microdilution MIC/MFC; type: cell-based; conditions: ATCC2091, read-out: MIC
Excerpt: as §1, §2, §3, §4, §5, §6, §7

[7] = system: Candida parapsilosis ATCC 22019; assay: Broth microdilution MIC/MFC; type: cell-based; conditions: for MIC: ATCC22019, read-out: MIC
Excerpt: as §1, §2, §3, §4, §5, §6, §7

[8] = system: Candida krusei ATCC 14243; assay: Broth microdilution MIC/MFC; type: cell-based; conditions: Pichia kudriavzevii, ATCC14243, read-out: MIC
Excerpt: as §1, §2, §3, §4, §5, §6, §7

[9] = system: Candida glabrata ATCC 90030; assay: Broth microdilution MIC/MFC; type: cell-based; conditions: for MIC: ATCC90030, read-out: MIC
Excerpt: as §1, §2, §3, §4, §5, §6, §7

[10] = system: Candida albicans ATCC 10231; assay: Broth microdilution MIC/MFC; type: cell-based; conditions: ATCC10231, read-out: MIC
Excerpt: as §1, §2, §3, §4, §5, §6, §7

[11] = system: Proteus mirabilis ATCC 12453; assay: Broth microdilution MIC/MBC; type: cell-based
Excerpt: as §1
as §2, with “antimicrobials.” for “antimicrobials. All the used microbial cultures were first subcultured on nu-trient agar or Sabouraud agar at 35°C for 18-24 h or 30°C for 24-48 h for bacteria and fungi,”
(§8) Samples containing examined compounds were dissolved in dimethyl sulfoxide (DMSO). […]
as §6, §7

[12] = system: Pseudomonas aeruginosa ATCC 9027; assay: Broth microdilution MIC/MBC; type: cell-based; conditions: ATCC9027
Excerpt: as §1
as §2, with “antimicrobials.” for “antimicrobials. All the used microbial cultures were first subcultured on nu-trient agar or Sabouraud agar at 35°C for 18-24 h or 30°C for 24-48 h for bacteria and fungi,”
as §8, §6, §7

[13] = system: Salmonella typhimurium ATCC 14028; assay: Broth microdilution MIC/MBC; type: cell-based
Excerpt: as §1
as §2, with “antimicrobials.” for “antimicrobials. All the used microbial cultures were first subcultured on nu-trient agar or Sabouraud agar at 35°C for 18-24 h or 30°C for 24-48 h for bacteria and fungi,”
as §8, §6, §7

[14] = system: Staphylococcus aureus ATCC 29213; assay: Broth microdilution MIC/MBC; type: cell-based; conditions: for MBC / MIC: ATCC29213
Excerpt: as §1
as §2, with “antimicrobials.” for “antimicrobials. All the used microbial cultures were first subcultured on nu-trient agar or Sabouraud agar at 35°C for 18-24 h or 30°C for 24-48 h for bacteria and fungi,”
as §8, §6, §7

[15] = system: Staphylococcus aureus ATCC 43300; assay: Broth microdilution MIC/MBC; type: cell-based; conditions: Staphylococcus aureus ATCC 43300 (MRSA)
Excerpt: as §1
as §2, with “antimicrobials.” for “antimicrobials. All the used microbial cultures were first subcultured on nu-trient agar or Sabouraud agar at 35°C for 18-24 h or 30°C for 24-48 h for bacteria and fungi,”
as §8, §6, §7

[16] = system: Staphylococcus epidermidis ATCC 12228; assay: Broth microdilution MIC/MBC; type: cell-based; conditions: for MBC: ATCC12228; for MIC: ATCC12228, read-out: MIC
Excerpt: as §1
as §2, with “antimicrobials.” for “antimicrobials. All the used microbial cultures were first subcultured on nu-trient agar or Sabouraud agar at 35°C for 18-24 h or 30°C for 24-48 h for bacteria and fungi,”
as §8, §6, §7

[17] = system: Micrococcus luteus ATCC 10240; assay: Broth microdilution MIC/MBC; type: cell-based; conditions: for MBC: ATCC10240
Excerpt: as §1
as §2, with “antimicrobials.” for “antimicrobials. All the used microbial cultures were first subcultured on nu-trient agar or Sabouraud agar at 35°C for 18-24 h or 30°C for 24-48 h for bacteria and fungi,”
as §8, §6, §7

[18] = system: reference Gram-positive bacteria; assay: Broth microdilution, summary over the Gram-positive panel; type: cell-based; conditions: read-out: MIC
Excerpt: as §1
as §2, with “antimicrobials.” for “antimicrobials. All the used microbial cultures were first subcultured on nu-trient agar or Sabouraud agar at 35°C for 18-24 h or 30°C for 24-48 h for bacteria and fungi,”
as §8, §6, §7

Gram-negative bacteria = assay: Broth microdilution, summary over the Gram-negative panel; type: cell-based
Excerpt: as §1, §2, §3, §4, §5, §6, §7

[19] = system: Bacillus subtilis ATCC 6633; assay: Broth microdilution MIC/MBC; type: cell-based; conditions: for MBC: ATCC6633
Excerpt: Detailed procedures are presented in the Supplementary Materials. […]
as §1, §2, §3, §4, §5, §6, §7

## Cc1cccc(/C=N/NC(=O)c2ccc(O)cc2O)c1 [Compound 2, 2,4-dihydroxy-N-[(3-methylphenyl)methylidene]benzohydrazide]
[1]
  MBC/MIC: > 1
[1]; ATCC4617
  MBC: > 1000 µg/mL
  MIC: 1000 µg/mL (≈ 3700 µM)
[2]
  MBC/MIC: 2
  MBC: 250 µg/mL (≈ 925 µM)
  MIC: 125 µg/mL (≈ 462 µM)
[3]
  MBC/MIC: > 1
[3]; ATCC13883
  MBC: > 1000 µg/mL
  MIC: 1000 µg/mL (≈ 3700 µM)
[4]
  MBC/MIC: 1
  MBC: 500 µg/mL (≈ 1850 µM)
  MIC: 500 µg/mL (≈ 1850 µM)
[5]
  MBC/MIC: > 1
[5]; ATCC25922
  MBC: > 1000 µg/mL
  MIC: 1000 µg/mL (≈ 3700 µM)
[6]
  MIC: > 1000 µg/mL
[7]
  MFC/MIC: > 2
[7]; Lodderomyces parapsilosis, ATCC22019, read-out: MFC
  MFC: > 1000 µg/mL
[7]; Lodderomyces parapsilosis
  MIC: 500 µg/mL (≈ 1850 µM)
[8]
  MIC: > 1000 µg/mL
[9]
  MFC/MIC: 2
[9]; Nakaseomyces glabratus, ATCC90030, read-out: MFC
  MFC: 500 µg/mL (≈ 1850 µM)
[9]; Nakaseomyces glabratus
  MIC: 250 µg/mL (≈ 925 µM)
[10]
  MIC: > 1000 µg/mL
[11]
  MBC/MIC: > 1
[11]; ATCC12453
  MBC: > 1000 µg/mL
  MIC: 1000 µg/mL (≈ 3700 µM)
[12]
  MIC: > 1000 µg/mL
[13]
  MBC/MIC: > 1
[13]; Salmonella enterica
  MBC: > 1000 µg/mL
  MIC: 1000 µg/mL (≈ 3700 µM)
[14]
  MBC/MIC: 1
  MBC: 250 µg/mL (≈ 925 µM)
  MIC: 250 µg/mL (≈ 925 µM)
[15]
  MBC: 500 µg/mL (≈ 1850 µM)
  MBC/MIC: 2
  MIC: 250 µg/mL (≈ 925 µM)
[16]
  MBC/MIC: 2
  MBC: 500 µg/mL (≈ 1850 µM)
  MIC: 250 µg/mL (≈ 925 µM)
[17]
  MBC/MIC: 8
  MIC: 31.25 µg/mL (≈ 116 µM)
  MBC: 250 µg/mL (≈ 925 µM)
[17]; ATCC10240, read-out: MIC
  MIC: 31.2 µg/mL (≈ 116 µM)
[18]
  MIC: 15.6 to 1000 µg/mL (≈ 57.8 to 3700 µM)
Gram-negative bacteria
  MBC: > 1000 µg/mL
  MIC: 500 to 1000 µg/mL (≈ 1850 to 3700 µM)
[19]
  MBC/MIC: 8
  MIC: 62.5 µg/mL (≈ 231 µM)
  MBC: 500 µg/mL (≈ 1850 µM)
[19]; ATCC6633, read-out: MIC
  MIC: 62.5 µg/mL (≈ 231 µM)

## O=C(N/N=C/c1ccc(O)c(Br)c1)c1ccc(O)cc1O [Compound 11, N-[(3-bromo-4-hydroxyphenyl)methylidene]-2,4-dihydroxybenzohydrazide]
[1]; ATCC4617
  MIC: > 1000 µg/mL
[2]
  MBC/MIC: > 4
  MBC: > 1000 µg/mL
  MIC: 250 µg/mL (≈ 712 µM)
[3]; ATCC13883
  MIC: > 1000 µg/mL
[4]
  MBC/MIC: > 2
  MBC: > 1000 µg/mL
  MIC: 500 µg/mL (≈ 1420 µM)
[5]; ATCC25922
  MIC: > 1000 µg/mL
[6]
  MIC: > 1000 µg/mL
[7]; Lodderomyces parapsilosis
  MIC: > 1000 µg/mL
[8]
  MIC: > 1000 µg/mL
[9]; Nakaseomyces glabratus
  MIC: > 1000 µg/mL
[10]
  MIC: > 1000 µg/mL
other
  melting point: 232 °C
[11]; ATCC12453
  MIC: > 1000 µg/mL
[12]
  MIC: > 1000 µg/mL
[13]; Salmonella enterica
  MIC: > 1000 µg/mL
[14]
  MBC/MIC: > 4
  MBC: > 1000 µg/mL
  MIC: 250 µg/mL (≈ 712 µM)
[15]
  MBC: 1000 µg/mL (≈ 2850 µM)
  MBC/MIC: 2
  MIC: 500 µg/mL (≈ 1420 µM)
[16]
  MBC/MIC: 2
  MBC: 1000 µg/mL (≈ 2850 µM)
  MIC: 500 µg/mL (≈ 1420 µM)
[17]
  MBC/MIC: > 8
  MBC: > 1000 µg/mL
[17]; ATCC10240, read-out: MIC
  MIC: 125 µg/mL (≈ 356 µM)
[18]
  MIC: 15.6 to 1000 µg/mL (≈ 44.5 to 2850 µM)
[19]
  MBC/MIC: > 2
  MBC: > 1000 µg/mL
[19]; ATCC6633, read-out: MIC
  MIC: 500 µg/mL (≈ 1420 µM)
